Each structure is given as a SMILES string.

In one series the target is Cat D (Homo sapiens, UniProt P07339). The experiment in a line: Cat D Ki determination (DABCYL/EDANS substrate). It counts as biochemical. On the procedure:
The Ki determination for Cat D was performed using the assay conditions derived from Haque et al., J. Med. Chem. 42: 1428–1440 (1999) and the following substrate: DABCYL-GLu-Arg-Nle-Phe-Leu-Ser-Phe-Pro-EDANS where Nle is norleucine and DABCYL and EDANS are as previously defined.

Series [1] has as its system H4 neuroglioma cells stably transfected with APP (H4 β695wt). Description: Cell-based Aβ secretion assay (sandwich ELISA) in H4 cells. The following applies: Homo sapiens. The source says: This example describes an illustrative set of cell-based assays for testing the ability of the compounds of the present invention to inhibit the secretion of the Aβ peptide from cells expressing high levels of the human amyloid precursor protein (“APP”).
A representative set of such cells include A-204 rhabdomyosarcoma cells, human embryonic kidney 293 cells transiently transfected with APP, Chinese hamster ovary cells stably transfected with APP (CHO2B7), and H4 neuroglioma cells stably transfected with APP (H4 β695wt). The A-204 cells and HEK 293 cells were obtained from ATCC. For HEK 293 transient transfections, a pcDNA3 plasmid containing the human APP gene was obtained from Invitrogen, and cells were transfected with FuGENE 6 transfection reagent (Roche) following manufacturer's protocols. The CHO2B7 and H4 β695 wt lines were obtained from Mayo Clinic (J. Neuroscience Methods 108(2): 171–9 (2001)). […]
In the assay, cells were pre-treated with compounds for 1–2 hours to “wash out” any Aβ in the secretory pathway prior to incubation with compounds for the conditioning period required to generate detectable concentrations of Aβ. The production of secreted Aβ in cultured cells was monitored by sandwich ELISA, using the anti-Aβ monoclonal antibodies 6E10 and 4G8 (Signet Laboratories). […]

Series [2] is described as follows: Plasma stability in human plasma. The format is in vitro ADME. The following applies: 37° C. The procedure: Plasma stability was determined by incubating the compounds in human plasma at a concentration of 1 μM at 37° C. for 0, 30 and 60 minutes. Reactions were stopped by addition of acetonitrile. Protein was precipitated by centrifugation (3000 rpm×10 min) then supernatants were analyzed for remaining parent compound by LC/MS/MS.

Series [3] is described as follows: Metabolic stability in human liver microsomes. The format is in vitro ADME. The following applies: pH 7.4. The procedure: Metabolic stability was determined by incubating the compounds with human liver microsomes (100 μg/ml) in 100 mM Tris buffer pH 7.4 for 5 minutes at 37° C. Metabolic reactions were started by addition of NADPH to give a final concentration of […]. Reactions were stopped after 30 and 60 minutes by addition of acetonitrile. Protein was precipitated by centrifugation (3000 rpm×10 min) then supernatants were analyzed for remaining parent compound by LC/MS/MS.
On the technique in general: Liver microsomes are a subcellular fraction often used to study metabolism.

Sequence of Cat D (P07339 65-412): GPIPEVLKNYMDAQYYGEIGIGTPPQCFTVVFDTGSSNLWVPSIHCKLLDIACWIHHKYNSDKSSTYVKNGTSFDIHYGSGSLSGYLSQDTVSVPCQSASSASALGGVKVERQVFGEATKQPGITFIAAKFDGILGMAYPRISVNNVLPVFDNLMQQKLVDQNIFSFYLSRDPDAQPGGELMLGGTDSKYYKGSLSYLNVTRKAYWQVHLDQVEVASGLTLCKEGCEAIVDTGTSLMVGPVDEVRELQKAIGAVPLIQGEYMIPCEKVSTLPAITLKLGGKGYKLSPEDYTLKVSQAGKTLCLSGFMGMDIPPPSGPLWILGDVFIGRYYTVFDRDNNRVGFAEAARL

Consider `CCCN(CCC)C(=O)c1cccc(C(=O)N[C@@H](CC(C)C)[C@@H](N)C[C@@H](C)C(=O)N[C@H](C(=O)NCc2ccccc2)C(C)C)c1` [R = NH2], for which affinity at Cat D was put at a Ki of 610 nM. Further, the “preference for BACE over Cat D” value at Cat D (Cat D Ki versus BACE Ki) is “over a three fold preference for BACE over Cat D”. For the same compound, the IC50 (in general, the point on the concentration scale where inhibition reaches its midpoint) in series [1] stood at 740 nM. Besides, the recovery at 1 h, 1 μM in series [2] was 100%. The recovery at 60 min in series [3] worked out at 43%.
`CCCN(CCC)C(=O)c1cccc(C(=O)N[C@@H](CC(C)C)[C@@H](O)C[C@@H](C)C(=O)N[C@H](C(=O)NCc2ccccc2)C(C)C)c1` [R = OH]: at Cat D, the Ki (commonly a dissociation constant, usually derived from enzyme kinetics or from competition with a known ligand) was determined as 20 nM. Also, the “preference for Cat D over BACE” value at Cat D (BACE Ki versus Cat D Ki) is on record as 7.5 fold. In series [1], half-maximal inhibition (IC50) was put at 2000 nM. Also, the recovery at 1 h, 1 μM in series [2] was determined as 100%. The same compound came in with a recovery at 60 min in series [3] of 0%.

Values taken from patent US7132568B2, “Aspartyl protease inhibitors” (Sunesis Pharmaceuticals, Inc., priority 2002, dated 2006).
